In publication PMC5074247 (Biopharmaceutics & Drug Disposition, 2016):
Like-named read-outs stand apart in the source and are kept apart here. Values belong to the compound of their own block, whether it stands above or below them.

Columns and labels:
[1] = cited from earlier work
[2] = cited from earlier work; remark: listed apart in the source
[3] = ref manufacturer's interview form; cited from earlier work
[4] = type: in vivo, Sprague–Dawley rats; conditions: oral 1 mg/kg [^14C]teneligliptin, SD rats
DPP‐4 = conditions: against DPP‐4 ref 2; cited from earlier work
[5] = ZDF rat model; compared with sitagliptin ref 39; cited from earlier work
[6] = intravenously administered to rats at doses above 3 mg/kg ref 23; cited from earlier work

Compound: N[C@@H](CC(=O)N1CCn2c(nnc2C(F)(F)F)C1)Cc1cc(F)c(F)cc1F [Sitagliptin, (2R)‐4‐Oxo‐4‐[3‐(trifluoromethyl)‐5,6‐dihydro[1,2,4]‐triazolo[4,3‐a]pyrazin‐7(8H)‐yl]‐1‐(2,4,5‐trifluorophenyl)butan‐2‐amine]
K p of radioactivity ([1]; Heart, oral 5 mg/kg, 4 h, rats ref 25): 2.73
K p of radioactivity ([1]; Kidney, oral 5 mg/kg, 4 h, rats ref 25): 14.7
K p of radioactivity ([1]; Liver, oral 5 mg/kg, 4 h, rats ref 25): 22.0
K p of radioactivity ([1]; Lung, oral 5 mg/kg, 4 h, rats ref 25): 9.09
K p of radioactivity ([1]; Pancreas, oral 5 mg/kg, 4 h, rats ref 25): 5.69
V ss ([2]; intravenous administration to rats ref 25): 8.8 25 l/kg
pKa [3]: 7.7

Compound: Cn1c(=O)cc(N2CCC[C@@H](N)C2)n(Cc2ccccc2C#N)c1=O [Alogliptin]
K p of radioactivity ([1]; Heart, oral 3 mg/kg, 4 h, rats ref 22): 2.36
K p of radioactivity ([1]; Kidney, oral 3 mg/kg, 4 h, rats ref 22): 29.7
K p of radioactivity ([1]; Liver, oral 3 mg/kg, 4 h, rats ref 22): 17.3
K p of radioactivity ([1]; Lung, oral 3 mg/kg, 4 h, rats ref 22): 8.6
K p of radioactivity ([1]; Pancreas, oral 3 mg/kg, 4 h, rats ref 22): 4.94
V ss ([2]; intravenous administration to rats ref 19): 3.5 19 l/kg
pKa [3]: 8.5

metabolite detection in plasma ([4]; plasma, 0.5 h): detected at low levels
Compound: Cc1cc(N2CCN(C3CNC(C(=O)N4CC[S+]([O-])C4)C3)CC2)n(-c2ccccc2)n1 (stereo not shown) [M1]

Compound: N#C[C@@H]1CCCN1C(=O)CNC12CC3CC(CC(O)(C3)C1)C2 [Vildagliptin, 1‐[[(3‐Hydroxy‐1‐adamantyl)amino]acetyl]‐2‐cyano‐(S)‐pyrrolidine]
K p of radioactivity ([1]; Heart, oral 100 mg/kg, 4 h, rats ref 26): 1.48
K p of radioactivity ([1]; Kidney, oral 100 mg/kg, 4 h, rats ref 26): 13.4
K p of radioactivity ([1]; Liver, oral 100 mg/kg, 4 h, rats ref 26): 13.6
K p of radioactivity ([1]; Lung, oral 100 mg/kg, 4 h, rats ref 26): 2.60
K p of radioactivity ([1]; Pancreas, oral 100 mg/kg, 4 h, rats ref 26): 3.29
pKa [3]: 7.6

Compound: N#C[C@@H]1C[C@@H]2C[C@@H]2N1C(=O)[C@@H](N)C12CC3CC(CC(O)(C3)C1)C2 [Saxagliptin]
V ss ([2]; intravenous administration to rats ref 20): 5.2 20 l/kg
pKa [3]: 7.3

Compound: Cc1cc2ncc(C(=O)NCC(C)(C)NCC(=O)N3CCC[C@H]3C#N)cn2n1.Cl [Anagliptin, N‐[2‐({2‐[(2S)‐2‐cyanopyrrolidin‐1‐yl]‐2‐oxoethyl}amino)‐2‐methylpropyl]‐2‐methylpyrazolo[1,5‐a]pyrimidine‐6‐carboxamide hydrochloride]
K p of radioactivity ([1]; Heart, oral 10 mg/kg, 6 h, rats ref 21): 0.74
K p of radioactivity ([1]; Kidney, oral 10 mg/kg, 6 h, rats ref 21, 10 mg/kg): 6.71
K p of radioactivity ([1]; Liver, oral 10 mg/kg, 6 h, rats ref 21): 4.36
K p of radioactivity ([1]; Lung, oral 10 mg/kg, 6 h, rats ref 21): 1.50
K p of radioactivity ([1]; Pancreas, oral 10 mg/kg, 6 h, rats ref 21): 0.81
V ss ([2]; intravenous administration to rats ref 2): 0.68 L/kg
pKa [3]: 6.7
IC50 (DPP‐4): 3.8 nM

Compound: CC#CCn1c(N2CCC[C@@H](N)C2)nc2c1c(=O)n(Cc1nc(C)c3ccccc3n1)c(=O)n2C [Linagliptin, 8‐(3‐I‐aminopiperidin‐1‐yl)‐7‐but‐2‐ynyl‐3‐methyl‐1‐(4‐methyl‐quinazolin‐2‐ylmethyl)‐3,7‐dihydropurine‐2,6‐dione]
K p of radioactivity ([1]; Heart, oral 2 mg/kg, 4 h, rats ref 23): 4.78
K p of radioactivity ([1]; Kidney, oral 2 mg/kg, 4 h, rats ref 23, 2 mg/kg): 113
K p of radioactivity ([1]; Kidney, oral 2 mg/kg, 4 h, rats ref 23, listed as linagliptin, 2 mg/kg): around 100
K p of radioactivity ([1]; Liver, oral 2 mg/kg, 4 h, rats ref 23): 42.3
K p of radioactivity ([1]; Lung, oral 2 mg/kg, 4 h, rats ref 23): 11.1
V ss ([2]; intravenous administration to rats ref 23): 50.3 L/kg
acetylcholine‐induced vascular relaxation [5]: significantly stronger
tissue distribution [6]: non‐linear tissue distribution

metabolite detection in kidney ([4]; kidney, 0.5, 24 and 72 h): detected in trace concentrations
Compound: O=C(C1CC(N2CCN(c3cc(CO)nn3-c3ccccc3)CC2)CN1)N1CCSC1 (stereo not shown) [M4]
